The source of these data is US20150079000A1, “Labelled Quinoxaline Derivatives as Multimodal Radiopharmaceuticals and Their Precursors” (INSTITUT NATIONAL DE LA SANTET DE LA RECHERCHE MEDICALE, priority 2012, published 2015).

One series relates to SKMEL-3 tumours. As to the kind of experiment: PET imaging in SKMEL-3 tumour bearing mice. It is filed as in vivo, Swiss nudes mice. As to conditions: 1 h p.i. The procedure: (§1) Protocols were performed under the authorization of the French Direction des Services Veterinaires (authorization no. CE 86-12). Female Swiss nudes mice (6 weeks old) were originating from Charles River laboratories and maintained at 21° C. with a 12 h/12 h light/dark cycle, fed with a breeding diet (diet A04 from Safe, Villemoisson, France) and received water ad libitum. For transplantation cell suspension were grown in a monolayer culture to confluence, after which cells were trypsinized, washed with phosphate buffer saline (PBS) and they were resuspended in PBS. Mice were anesthetized by isoflurane (4% for induction and 2±0.5% for maintaining in oxygen flux) inhalation. The primary tumour model was induced by subcutaneous injection of 3×10^6 melanoma SKMEL-3 (pigmented cell line) or A375 (non-pigmented cell ligne) cells in 0.1 mL on the right shoulder of mice.
(§2) Whole-body PET scans were acquired 1 h after bolus injection of 10 MBq of [^18F](1) in a volume of 0.15 ml via the tail vein. […]
(§3) Regional tracer uptake was quantified by standard region-of-interest (ROI) analysis with eXplore Vista software package. […]

Series [1] in a line: [18F](1) stability study on ex vivo extracts. Type of series: in vivo, mice. The procedure: Six primary melanoma bearing mice were intravenously injected with 18 MBq of [^18F](1) and sacrificed 30 min, 1 h and 2 h after tracer injection. To determine the metabolic stability of [^18F](1), blood, tumour, eyes, liver and urine samples were collected. Blood was immediately centrifuged for 5 min at 3,000 rpm and plasma directly investigated by analytical HPLC. Other organs were pooled and homogenized using GentleMACS™ dissociator (Miltenyi Biotec, Bergisch Gladbach, Germany), suspended in 5 mL of methanol/NH4OH 99.8:0.2 and centrifuged for 5 min at 3,000 rpm. The extraction efficiency was determined by measuring the radioactivity of supernatants and precipitates. Supernatants were passed through a 0.22 μm Millipore filter and then concentrated to a volume between 200 and 500 μL before injection (duplicate) onto the analytical HPLC (Waters Symmetry® C18; Gradient elution: 60% to 90% MeOH (0.4% NH4OH) in water (0.4% NH4OH) (10 min), then 60% for 7 min).

The nature of series [2]: octanol/water (PBS buffer) partition coefficient (log D). Type of series: physicochemical.
The test system of another series is A375 tumours. As to the kind of experiment: PET imaging in A375 tumour bearing mice. Type of series: in vivo, Swiss nudes mice. As to conditions: 1 h p.i. The procedure:
as §1, §2, §3

In the case of `CCN(CCNC(=O)c1cnc2cc(I)ccc2n1)CCOCCOCCOCC[18F]` [[^18F](1)], the muscles activity in the series on SKMEL-3 tumours (SKMEL-3 tumour bearing mice) turned out to be 1.34±0.42 % ID/g; with A375 tumours (A375 tumour bearing mice) it was 1.14±0.28 % ID/g. Besides, the tumour uptake came to 4.65±1.07 % ID/g in the series with SKMEL-3 tumours (day-27, pigmented SKMEL-3 tumours) and 1.87±0.34 % ID/g with A375 tumours (day-23, unpigmented A375 tumours). The “% unchanged [18F](1)” value in series [1] (Black, Blood, 30 min) is 15.2%; in series [1] (Black, Eyes, 1 h), 100%; in series [1] (Black, Eyes, 2 h), over 99%; in series [1] (Black, Liver, 1 h), under 10%; in series [1] (Black, Liver, 2 h) it was under 20%; in series [1] (Black, Tumour, 1 h), over 99%. For the same compound, the “% unchanged [18F](1)” value in series [1] (Black, Tumour, 2 h) is 100%; in series [1] (Black, Urine, 1 h) it was 0.1%; in series [1] (Black, Urine, 2 h) it was 0.0%; in series [1] (Nude, Blood, 30 min), 3.0%; in series [1] (Nude, Liver, 2 h), under 10%; in series [1] (Nude, Tumour, 1 h), over 99%. Further, the “% unchanged [18F](1)” value was over 99% in series [1] (Nude, Tumour, 2 h); 2.7% in series [1] (Nude, Urine, 1 h); 1.4% in series [1] (Nude, Urine, 2 h). Also, in series [2], the “octanol/water (PBS buffer) partition coefficient (log D)” value is on record as 1.52±0.03.
